Experimental data as given in US20240368194A1, “IRAK4 DEGRADATION AGENT, AND PREPARATION METHOD THEREFOR AND USE THEREOF” (SHANGHAI LEADINGTAC PHARMACEUTICAL CO. LTD., priority 2021, published 2024).

Tests used:
IRAK4 kinase = IRAK4 kinase (Homo sapiens (Human), UniProt Q9NWZ3); experiment: IRAK4 kinase activity test (KinEASE-STK S1 HTRF kit); type: biochemical; conditions: 2.5 nM IRAK4 kinase, 7 μM ATP, 37° C. 120 min
Experimental: Then 2.5 nM 1RAK4 kinase (Carna), 1 μM biotinylated polypeptide substrate (Cisbio) and 7 μM adenosine triphosphate (Sigma-Aldrich) were sequentially added, and the mixtures were incubated at 37° C. for 120 min. Subsequently, an anti-phosphoserine/threonine antibody (Cisbio) conjugated with a europium element compound and conjugated modified XL665 streptavidin (Cisbio) were added to the reaction systems to stop the reactions. After 1 h of incubation at room temperature, the fluorescence intensity of each well was measured at the excitation wavelength of 337 nm and the emission wavelengths of 620 nm and 665 nm with a microplate reader EnVision (PerkinElmer) in the HTRF mode, and Ratio values were calculated using the formula Ratio=(665 nm/620 nm)×[…]. The inhibition rate of the compound at each concentration was calculated by comparing the fluorescence intensity ratio with that of the control group. Then a non-linear curve fitting of logarithmic concentration-inhibition rate was performed using GraphPad Prism 7, and the IC50 value of the compound was obtained.

[1] = target: IRAK4 protein in THP-1 cells (Homo sapiens (Human), UniProt Q9NWZ3); experiment: Degradation of IRAK4 in THP-1 cells, human IRAK4 AlphaLISA assay; type: cell-based; conditions: 24 h incubation
IRAK4 protein in THP-1 cells, sequence (Q9NWZ3 whole entry): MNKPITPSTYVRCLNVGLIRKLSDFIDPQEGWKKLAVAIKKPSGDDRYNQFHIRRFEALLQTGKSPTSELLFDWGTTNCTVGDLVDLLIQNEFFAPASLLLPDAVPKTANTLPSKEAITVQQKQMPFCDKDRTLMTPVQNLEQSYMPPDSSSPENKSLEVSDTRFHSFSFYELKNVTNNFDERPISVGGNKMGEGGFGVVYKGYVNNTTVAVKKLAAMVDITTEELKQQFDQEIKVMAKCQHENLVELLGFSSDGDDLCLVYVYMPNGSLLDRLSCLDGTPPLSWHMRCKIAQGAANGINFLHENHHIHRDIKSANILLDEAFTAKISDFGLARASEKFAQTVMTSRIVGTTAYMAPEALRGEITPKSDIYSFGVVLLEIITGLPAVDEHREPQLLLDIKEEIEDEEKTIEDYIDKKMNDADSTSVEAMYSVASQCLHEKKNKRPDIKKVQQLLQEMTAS
Experimental: THP-1 cells (Stem Cell Bank, Chinese Academy of Sciences) were inoculated onto a 24-well cell culture plate at 0.95 mL/well, with a cell density of 5×10^5 cells/well. The cell plate was incubated overnight in a 37° C., 5% carbon dioxide incubator, and 50 μL of a solution of a compound in dimethyl sulfoxide was added, such that the final concentration of the compound fell within the range of 0.03-3000 nM. After another 24 h of incubation, cells were collected into 1.5 mL centrifuge tubes and centrifuged at 1000 rpm at 4° C. for 5 min. The cell pellets were washed twice with 1×DPBS. The resuspended cells were lysed with 200 μL of lysis buffer (Western and IP cell lysis buffer (Beyotime), supplemented with 1 mM phenylmethylsulfonyl fluoride and protease inhibitor cocktail (Beyotime)), left to stand on ice for 30 mini, and then centrifuged at 14,000 g at 4° C. for 10 min. The supernatant samples were assayed by Western Blot for IRAK4 protein levels.
The above cell lysates were also tested for IRAK4 degradation using a human IRAK4 AlphaLISA assay kit (PerkinElmer, AL3117C). The method is specifically as follows: 2-μL test samples of cell lysate supernatant were transferred to a white 384-well plate (PerkinElmer, 6007299), and 4 μL of 5× anti-IRAK4 receptor beads (PerkinElmer, final concentration of 10 μg/mL) was then added. The plate was incubated at 23° C. for 30 min. Then 4 μL of 5× biotin-labeled anti-IRAK4 antibody (PerkinElmer, final concentration of 1 nM) was added, and the plate was incubated at 23° C. for 60 min. Finally, 10 μL of 2′ streptavidin-labeled donor beads (final concentration of 40 μg/mL) was added to each well, and the plate was incubated in the dark at 23° C. for 30 min. After the incubation was complete, AlphaLISA signal values were measured on a microplate reader EnVision (PerkinElmer, 2105) in the AlphaScreen standard mode, and IRAK4 concentrations were calculated from these signal values. Then a non-linear curve fitting of logarithmic concentration-inhibition rate was performed using GraphPad Prism 7, and the DC50 and Dmax values of the compound were obtained.

IRAK4 kinase, sequence (Q9NWZ3 whole entry): as above

SMILES | IC50 (IRAK4 kinase) [nM] | DC50 [1] [nM] | Dmax [1] [%]
COc1ccc(C(=O)N2CCC3(CCC(CN4CCC(n5cc(NC(=O)c6cnn7ccc(N8C[C@H]9C[C@@H]8CO9)nc67)c(C(F)F)n5)CC4)CC3)CC2)cc1N1CCC(=O)NC1=O [Example 13, 5-((1R,4R)-2-oxa-5-azabicyclo[2.2.1]heptan-5-yl)-N-(3-(difluoromethyl)-1-(1-((3-(3-(2,4-dioxotetrahydropyrimidin-1(2H)-yl)-4-methoxybenzoyl)-3-azaspiro[5.5]undecan-9-yl)methyl)piperidin-4-yl)-1H-pyrazol-4-yl)pyrazolo[1,5-a]pyrimidine-3-carboxamide] | 19.3 | 5.5 | 84.4
O=C1CCN(c2cc(C(=O)N3CCC4(CCC(CN5CCC(n6cc(NC(=O)c7cnn8ccc(N9CCOCC9)nc78)c(C(F)F)n6)CC5)CC4)CC3)ccc2Cl)C(=O)N1 [Example 15, N-(1-(1-((3-(4-chloro-3-(2,4-dioxotetrahydropyrimidin-1(2H)-yl)benzoyl)-3-azaspiro[5.5]undecan-9-yl)methyl)piperidin-4-yl)-3-(difluoromethyl)-1H-pyrazol-4-yl)-5-morpholinopyrazolo[1,5-a]pyrimidine-3-carboxamide] | 14.2 | 2.5 | 92.1
O=C1CCN(c2cc(C(=O)N3CCC(COCCN4CCC(n5cc(NC(=O)c6cnn7ccc(N8C[C@H]9C[C@@H]8CO9)nc67)c(C(F)F)n5)CC4)CC3)ccc2Cl)C(=O)N1 [Example 18, 5-((1R,4R)-2-oxa-5-azabicyclo[2.2.1]heptan-5-yl)-N-(1-(1-(2-((1-(4-chloro-3-(2,4-dioxotetrahydropyrimidin-1(2H)-yl)benzoyl)piperidin-4-yl)methoxy)ethyl)piperidin-4-yl)-3-(difluoromethyl)-1H-pyrazol-4-yl)pyrazolo[1,5-a]pyrimidine-3-carboxamide] | 66.9 | 54.3 | 62.5
CN(CCN1CCC(n2cc(NC(=O)c3cnn4ccc(N5C[C@H]6C[C@@H]5CO6)nc34)c(C(F)F)n2)CC1)CC1CCN(C(=O)c2ccc(Cl)c(N3CCC(=O)NC3=O)c2)CC1 [Example 20, 5-((1R,4R)-2-oxa-5-azabicyclo[2.2.1]heptan-5-yl)-N-(1-(1-(2-(((1-(4-chloro-3-(2,4-dioxotetrahydropyrimidin-1(2H)-yl)benzoyl)piperidin-4-yl)methyl)(methyl)amino)ethyl)piperidin-4-yl)-3-(difluoromethyl)-1H-pyrazol-4-yl)pyrazolo[1,5-a]pyrimidine-3-carboxamide] | 89.2 | 78.6 | 87
O=C1CCN(c2cc(C(=O)N3CCC(OCCCN4CCC(n5cc(NC(=O)c6cnn7ccc(N8C[C@H]9C[C@@H]8CO9)nc67)c(C(F)F)n5)CC4)CC3)ccc2Cl)C(=O)N1 [Example 23, 5-((1R,4R)-2-oxa-5-azabicyclo[2.2.1]heptan-5-yl)-N-(1-(1-(3-((1-(4-chloro-3-(2,4-dioxotetrahydropyrimidin-1(2H)-yl)benzoyl)piperidin-4-yl)oxy)propyl)piperidin-4-yl)-3-(difluoromethyl)-1H-pyrazol-4-yl)pyrazolo[1,5-a]pyrimidine-3-carboxamide] | 23 | 10.1 | 93.7
O=C1CCN(c2cc(C(=O)N3CCC4(CCC(CN5CCC(n6cc(NC(=O)c7cnn8ccc(N9CCOCC9)nc78)c(C(F)F)n6)CC5)CC4)CC3)ccc2C(F)(F)F)C(=O)N1 [Example 25, N-(3-(difluoromethyl)-1-(1-((3-(3-(2,4-dioxotetrahydropyrimidin-1(2H)-yl)-4-(trifluoromethyl)benzoyl)-3-azaspiro[5.5]undecan-9-yl)methyl)piperidin-4-yl)-1H-pyrazol-4-yl)-5-morpholinopyrazolo[1,5-a]pyrimidine-3-carboxamide] | 14.1 | 62.1 | 97.8

Now those with a lower IC50 (IRAK4 kinase), led by results:

IC50 (IRAK4 kinase) [nM] | DC50 [1] [nM] | Dmax [1] [%] | SMILES
8.8 | 6.4 | 87.9 | COc1ccc(C(=O)N2CCC3(CCC(CN4CCC(n5cc(NC(=O)c6cnn7ccc(N8CC9CCC(C8)O9)nc67)c(C(F)F)n5)CC4)CC3)CC2)cc1N1CCC(=O)NC1=O [Example 16, 5-(8-oxa-3-azabicyclo[3.2.1]octan-3-yl)-N-(3-(difluoromethyl)-1-(1-((3-(3-(2,4-dioxotetrahydropyrimidin-1(2H)-yl)-4-methoxybenzoyl)-3-azaspiro[5.5]undecan-9-yl)methyl)piperidin-4-yl)-1H-pyrazol-4-yl)pyrazolo[1,5-a]pyrimidine-3-carboxamide]
3.8 | 5.1 | 97.7 | O=C1CCN(c2cc(C(=O)N3CCC4(CCC(CN5CCC(n6cc(NC(=O)c7cnn8ccc(N9CCNCC9)nc78)c(C(F)F)n6)CC5)CC4)CC3)ccc2Cl)C(=O)N1 [Example 19, N-(1-(1-((3-(4-chloro-3-(2,4-dioxotetrahydropyrimidin-1(2H)-yl)benzoyl)-3-azaspiro[5.5]undecan-9-yl)methyl)piperidin-4-yl)-3-(difluoromethyl)-1H-pyrazol-4-yl)-5-(piperazin-1-yl)pyrazolo[1,5-a]pyrimidine-3-carboxamide]
9.9 | 9.6 | 95.5 | O=C1CCN(c2cc(C(=O)N3CCC(CCCCN4CCC(n5cc(NC(=O)c6cnn7ccc(N8C[C@H]9C[C@@H]8CO9)nc67)c(C(F)F)n5)CC4)CC3)ccc2Cl)C(=O)N1 [Example 21, 5-((1R,4R)-2-oxa-5-azabicyclo[2.2.1]heptan-5-yl)-N-(1-(1-(4-(1-(4-chloro-3-(2,4-dioxotetrahydropyrimidin-1(2H)-yl)benzoyl)piperidin-4-yl)butyl)piperidin-4-yl)-3-(difluoromethyl)-1H-pyrazol-4-yl)pyrazolo[1,5-a]pyrimidine-3-carboxamide]
6.08 | 6.16 | 96.3 | O=C1CCN(c2cc(C(=O)N3CCC4(CCC(CN5CCC(n6cc(NC(=O)c7cnn8ccc(N9CCOCC9)nc78)c(C(F)F)n6)CC5)CC4)CC3)ccc2F)C(=O)N1 [Example 24, N-(3-(difluoromethyl)-1-(1-((3-(3-(2,4-dioxotetrahydropyrimidin-1(2H)-yl)-4-fluorobenzoyl)-3-azaspiro[5.5]undecan-9-yl)methyl)piperidin-4-yl)-1H-pyrazol-4-yl)-5-morpholinopyrazolo[1,5-a]pyrimidine-3-carboxamide]
12.9 | 3.18 | 89.4 | COc1ccc(C(=O)N2CCC3(CCC(CCN4CCC(n5cc(NC(=O)c6cnn7ccc(N8CCOCC8)nc67)c(C(F)F)n5)CC4)CC3)CC2)cc1N1CCC(=O)NC1=O [Example 28, N-(3-(difluoromethyl)-1-(1-(2-(3-(3-(2,4-dioxotetrahydropyrimidin-1(2H)-yl)-4-methoxybenzoyl)-3-azaspiro[5.5]undecan-9-yl)ethyl)piperidin-4-yl)-1H-pyrazol-4-yl)-5-morpholinopyrazolo[1,5-a]pyrimidine-3-carboxamide]
11 | 3.55 | 87.1 | Cc1ccc(C(=O)N2CCC3(CCC(CN4CCC(n5cc(NC(=O)c6cnn7ccc(N8CCOCC8)nc67)c(C(F)F)n5)CC4)CC3)CC2)cc1N1CCC(=O)NC1=O [Example 34, N-(3-(difluoromethyl)-1-(1-((3-(3-(2,4-dioxotetrahydropyrimidin-1(2H)-yl)-4-methylbenzoyl)-3-azaspiro[5.5]undecan-9-yl)methyl)piperidin-4-yl)-1H-pyrazol-4-yl)-5-morpholinopyrazolo[1,5-a]pyrimidine-3-carboxamide]
